Source: article PMC12298648, “An Evaluation of the Cytotoxicity and Safety Profile of Usnic Acid for a Broad Panel of Human Cancers and Normal Cells with Respect to Its Enantiospecificity” (Molecules, 2025)
Values after ≈ are worked out from the molar mass of the structure shown. Like-named read-outs stand apart in the source and are kept apart here.

Assays:
[1] = test system: SH-SY5Y neuroblastoma cells; details: cited from earlier work
MDA-MB-231 = assay: MTT viability assay, MDA-MB-231 breast cancer cells; format: cell-based, human; details: for IC50: Homo sapiens; for Cell viability: MDA-MB-231, 24 h
Source text: (§1) Cell lines of different origins were used in the study and grouped as follows: prostate panel (human prostate carcinomas: DU145, derived from metastatic site: brain; grade IV PC3, derived from metastatic site: bone; LNCaP, derived from the metastatic site: lymph node; prostate epithelial, PNT2), colon panel (colorectal adenocarcinomas: HT29, originating from a primary tumor; Duke’s type C DLD-1, with the potential to lymph node metastasis; highly metastatic HCT116; colon epithelial cells CCD 841 CoN), thyroid panel (follicular thyroid carcinoma FTC133, anaplastic thyroid carcinoma 8505C, papillary thyroid carcinoma TPC-1, normal thyroid follicular epithelial Nthy-ori 3–1), breast panel (ER-positive breast adenocarcinoma MCF7, ER-negative breast adenocarcinoma MDA-MB-231, breast epithelial MCF10A), brain panel (neuroblastoma SH-SY5Y, glioblastoma U-87 MG, murine astrocytes C8D1A). All cell lines were purchased from Merck (Darmstadt, Germany).
(§2) Cells were grown under standard conditions (37 °C, 5% CO2) and culture media (DMEM/F12 for PNT2, PC3, FTC133, 8505 C, MDA-MB-231, TPC-1; DMEM Low Glucose for DU145; DMEM High Glucose for HCT116, DLD-1, SH-SY5Y, U87MG, C8D1A; MEM with NEAA for MCF7; MEM for CCD 841 CoN; McCoy’s for HT29; RPMI1640 with sodium pyruvate for LNCaP; DMEM/F12 with 20 ng/mL epidermal growth factor (EGF), 10 μg/mL insulin, 0.5 μg/mL hydrocortisone, 100 ng/mL cholera toxin) for MCF10A), supplemented with 10% fetal bovine serum (FBS) or 5% donor horse serum for MCF10A, and 1% antibiotics solution (10,000 U penicillin and 10 mg streptomycin/mL). The tested substances were prepared as 10 mg/mL stock solutions in DMSO and further diluted in the culture media to the working concentrations. Cells were treated with UA enantiomers at the concentration range of 0–50 µg/mL. The influence of DMSO on cell viability was also examined, with the final concentration […], and no toxic effect was noted.
(§3) The cells were seeded onto 96-well plates at a density of 1.5 × 10^4 cells/well. After 24 h UA enantiomers were added. Cell viability was determined after 24, 48, and 72 h by the MTT assay, as described previously. Doxorubicin was used as a reference cytostatic drug. All analyses were performed in triplicate; cell viability was expressed as % of control, untreated cells (mean ± SD), and IC50 values (concentration at which cell viability is inhibited by 50%), if possible.
(§4) The selectivity index (SI) was calculated, if possible, by dividing the IC50 value obtained for non-cancerous cells line by the IC50 values obtained for appropriate cancer cell line, as described previously. […] The values above 3 indicate good selectivity.

HTB140 cells = test system: HTB140 cells; design: method as in PMID 34577645; details: HTB140, 48 h (implied); cited from earlier work
HCT116 cells = details: cited from earlier work
LNCaP cells = test system: LNCaP cells; design: method as in PMID 30101414; details: 48 h, cited from earlier work
A375 cells = test system: A375 cells; design: method as in PMID 34577645; details: A375, 48 h; cited from earlier work
U87MG cells = details: cited from earlier work; for CC50: 24 h
MDA-MB-231 cells = details: cited from earlier work
DLD1 cells = details: DLD1, 48 h, cited from earlier work
LNCaP = assay: MTT viability assay, LNCaP prostate cancer cells; format: cell-based, human; details: for Cell viability: 24 h; for IC50: Homo sapiens
Source text: as §1, §2, §3

DU145 = assay: MTT viability assay, DU145 prostate cancer cells; format: cell-based, human; details: for Cell viability: DU145, 24 h; for IC50: Homo sapiens, DU-145
Source text: as §1, §2, §3, §4

HaCaT keratinocytes = test system: HaCaT keratinocytes; design: method as in PMID 34500657; details: cited from earlier work
T98G = test system: T98G; design: method as in PMID 34959693; details: cited from earlier work
A172 = test system: A172; design: method as in PMID 34959693; details: cited from earlier work
[2] = recalculated from µM by the authors

CC(=O)C1=C(O)C=C2Oc3c(C(C)=O)c(O)c(C)c(O)c3[C@@]2(C)C1=O [UA(+), (+)-usnic acid]
Cell viability ([1]; at 2 µg/mL): 42% | Cell viability ([1]; at 10 µg/mL): 57% | IC50 (MDA-MB-231; MDA-MB-231, 48 h): > 50 µg/mL | IC50 (MDA-MB-231; MDA-MB-231, 72 h): 15.8 µg/mL (≈ 45.9 µM) | selectivity index (SI) (MDA-MB-231; IC50 MCF10A / IC50 MDA-MB-231, 72 h): 2.83 | Cell viability (MDA-MB-231; 2.5 µg/mL): 100.36 % of control | Cell viability (MDA-MB-231; 5 µg/mL): 95.55 % of control | Cell viability (MDA-MB-231; 10 µg/mL): 87.62 % of control | Cell viability (MDA-MB-231; 20 µg/mL): 81.99 % of control | Cell viability (MDA-MB-231; 30 µg/mL): 77.62 % of control | Cell viability (MDA-MB-231; 40 µg/mL): 67.93 % of control | Cell viability (MDA-MB-231; 50 µg/mL): 69.24 % of control | IC50 (HTB140 cells): 14.72 µg/mL (≈ 42.8 µM) | IC50 (HCT116 cells; HCT116, 48 h, recalculated from µM by the authors): 34.4 µg/mL | IC50 (HCT116 cells; HCT116, 48 h, read-out: IC50): 100 µM | IC50 (HCT116 cells; HCT116, 72 h, recalculated from µM by the authors): 49.24 µg/mL | IC50 (HCT116 cells; HCT116, 72 h, read-out: IC50): 143 µM | IC50 (LNCaP cells; read-out: IC50): 77.5 µM | IC50 (LNCaP cells; [2]): 26.7 µg/mL | IC50 (A375 cells): 11.84 µg/mL (≈ 34.4 µM) | CC50 (U87MG cells; read-out: CC50): 47 µM | CC50 (U87MG cells; [2]): 16 µg/mL | IC50 (U87MG cells; 48 h): 41.5 µg/mL (≈ 121 µM) | IC50 (MDA-MB-231 cells; MDA-MB-231, 24 h, recalculated from µM by the authors): 13.23 µg/mL | IC50 (MDA-MB-231 cells; MDA-MB-231, 24 h, read-out: IC50): 38.4 µM | IC50 (MDA-MB-231 cells; MDA-MB-231, 72 h, recalculated from µM by the authors): 4.5 µg/mL | IC50 (MDA-MB-231 cells; MDA-MB-231, 72 h, read-out: IC50): 13.1 µM | IC50 (DLD1 cells; [2]): 34.4 µg/mL | IC50 (DLD1 cells; read-out: IC50): 100 µM | Cell viability (LNCaP; 2.5 µg/mL): 87.68 % of control | Cell viability (LNCaP; 5 µg/mL): 81.45 % of control | Cell viability (LNCaP; 10 µg/mL): 79.71 % of control | Cell viability (LNCaP; 20 µg/mL): 75.51 % of control | Cell viability (LNCaP; 30 µg/mL): 71.45 % of control | Cell viability (LNCaP; 40 µg/mL): 69.13 % of control | Cell viability (LNCaP; 50 µg/mL): 69.71 % of control | IC50 (LNCaP; 48 h): > 50 µg/mL | IC50 (LNCaP; 72 h): > 50 µg/mL | Cell viability (DU145; 2.5 µg/mL): 102.26 % of control | Cell viability (DU145; 5 µg/mL): 94.38 % of control | Cell viability (DU145; 10 µg/mL): 86.92 % of control | Cell viability (DU145; 20 µg/mL): 87.54 % of control | Cell viability (DU145; 30 µg/mL): 72.41 % of control | Cell viability (DU145; 40 µg/mL): 68.15 % of control | Cell viability (DU145; 50 µg/mL): 67.13 % of control | IC50 (DU145; DU145, 48 h): 11.5 µg/mL (≈ 33.4 µM) | IC50 (DU145; DU145, 72 h): 12.1 µg/mL (≈ 35.1 µM) | selectivity index (SI) (DU145; IC50 PNT2 / IC50 DU145, 48 h): 3.25 | selectivity index (SI) (DU145; IC50 PNT2 / IC50 DU145, 48 h, listed as (+)-UA): exceeding 3 | selectivity index (SI) (DU145; IC50 PNT2 / IC50 DU145, 72 h): 1.68

CC(=O)C1=C(O)C=C2Oc3c(C(C)=O)c(O)c(C)c(O)c3[C@]2(C)C1=O [UA(−), (−)-usnic acid]
IC50 (MDA-MB-231; MDA-MB-231, 48 h): 41.4 µg/mL (≈ 120 µM) | IC50 (MDA-MB-231; MDA-MB-231, 72 h): 20.2 µg/mL (≈ 58.7 µM) | Cell viability (MDA-MB-231; 2.5 µg/mL): 96.79 % of control | Cell viability (MDA-MB-231; 5 µg/mL): 92.06 % of control | Cell viability (MDA-MB-231; 10 µg/mL): 88.24 % of control | Cell viability (MDA-MB-231; 20 µg/mL): 85.58 % of control | Cell viability (MDA-MB-231; 30 µg/mL): 74.48 % of control | Cell viability (MDA-MB-231; 40 µg/mL): 68.12 % of control | Cell viability (MDA-MB-231; 50 µg/mL): 70.55 % of control | IC50 (HaCaT keratinocytes; 48 h): 80.82 µg/mL (≈ 235 µM) | IC50 (HaCaT keratinocytes; 72 h): 70.12 µg/mL (≈ 204 µM) | IC50 (T98G): 13 µg/mL (≈ 37.8 µM) | IC50 (A172): 31.5 µg/mL (≈ 91.5 µM) | Cell viability (LNCaP; 2.5 µg/mL): 100.45 % of control | Cell viability (LNCaP; 5 µg/mL): 98.18 % of control | Cell viability (LNCaP; 10 µg/mL): 88.48 % of control | Cell viability (LNCaP; 20 µg/mL): 85.30 % of control | Cell viability (LNCaP; 30 µg/mL): 81.97 % of control | Cell viability (LNCaP; 40 µg/mL): 79.09 % of control | Cell viability (LNCaP; 50 µg/mL): 89.39 % of control | IC50 (LNCaP; 48 h): > 50 µg/mL | IC50 (LNCaP; 72 h): > 50 µg/mL | Cell viability (DU145; 2.5 µg/mL): 99.84 % of control | Cell viability (DU145; 5 µg/mL): 89.03 % of control | Cell viability (DU145; 10 µg/mL): 82.15 % of control | Cell viability (DU145; 20 µg/mL): 77.63 % of control | Cell viability (DU145; 30 µg/mL): 68.28 % of control | Cell viability (DU145; 40 µg/mL): 64.95 % of control | Cell viability (DU145; 50 µg/mL): 65.86 % of control | IC50 (DU145; DU145, 48 h): 34.8 µg/mL (≈ 101 µM) | IC50 (DU145; DU145, 72 h): 18.6 µg/mL (≈ 54 µM) | selectivity index (SI) (DU145; IC50 PNT2 / IC50 DU145, 48 h): 1.02 | selectivity index (SI) (DU145; IC50 PNT2 / IC50 DU145, 72 h): 1.49
